Source: patent US11207312B2, “Metallo-beta-lactamase inhibitors and methods of use thereof” (priority 2017, dated 2021)

Key:
NDM-1 = NDM-1 (Klebsiella pneumoniae, UniProt C7C422); assay: biochemical; type: biochemical; settings: CCF2-FA fluorescence assay, 2 hours at 25° C.
Procedure, shortened: (§1)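 IC50s come from 4-parameter fits of inhibition versus inhibitor concentration, tested from 20 μM down to 0.00063 μM. Enzyme, CCF2-FA (1.25 μM) and inhibitor react 2 h at 25° C, pH 7, with 10 μM ZnSO4 and 0.005% Tween-20.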

IMP-1 = IMP-1 (Serratia marcescens, UniProt P52699); assay: biochemical; settings: CCF2-FA fluorescence assay, 2 hours at 25° C.; read-out: IMP1 IC50
Chain of IMP-1 (P52699 whole entry, looked up, species assumed): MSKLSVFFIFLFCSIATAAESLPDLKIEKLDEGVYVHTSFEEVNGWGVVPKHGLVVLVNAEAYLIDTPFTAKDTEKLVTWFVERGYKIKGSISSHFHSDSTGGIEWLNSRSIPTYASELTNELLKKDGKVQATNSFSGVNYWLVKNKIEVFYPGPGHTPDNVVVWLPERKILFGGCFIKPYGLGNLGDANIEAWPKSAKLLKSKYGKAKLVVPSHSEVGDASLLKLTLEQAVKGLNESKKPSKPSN
Procedure, shortened: as §1

VIM-1 = VIM-1 (Pseudomonas aeruginosa (strain ATCC 15692 / DSM 22644 / CIP 104116 / JCM 14847 / LMG 12228 / 1C / PRS 101 / PAO1), UniProt A0A0F7KYQ8); assay: biochemical; settings: CCF2-FA fluorescence assay, 2 hours at 25° C.; read-out: VIM1 IC50
Procedure, shortened: as §1

VIM-2 = VIM-2 (Escherichia coli, UniProt Q5U7L7); assay: biochemical; settings: CCF2-FA fluorescence assay; read-out: VIM2 IC50
[1] = test system: Escherichia coli expressing NDM-1 (CLB30016); type: cell-based; settings: with imipenem 1 μg/ml; 95% inhibition of bacterial growth
Procedure, shortened: (§2)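 Clinical MBL-producing strains grown overnight at 35° C, diluted 1:100 into CAMHB, then exposed to test compound with imipenem at 1 μg/ml for 22–24 h at 35° C. Absorbance read-out; MITC95 is the lowest compound concentration giving 95% growth inhibition with imipenem.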

[2] = test system: Klebsiella pneumoniae expressing VIM-1 (IHMA599644); type: cell-based; settings: with imipenem 1 μg/ml; 95% inhibition of bacterial growth
Procedure, shortened: as §2

[3] = test system: Serratia marcescens expressing IMP-1 (CL5741); type: cell-based; settings: with imipenem 1 μg/ml; 95% inhibition of bacterial growth
Procedure, shortened: as §2

[4] = test system: P. aeruginosa MB9798 (efflux+, IMP-1 plasmid); settings: for MB9798 MITC95 P. aeruginosa uM Efflux WT: efflux + (MB9798) strain, imipenem at 2 μg/mL, in the presence of a class A, C, D serine β-lactamase inhibitor closely related to relebactam; for Efflux ratio: fold difference between efflux+ (MB9798) and efflux− (MB9799) strains
Procedure, shortened: (§3)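 Isogenic P. aeruginosa PAO1 strains (efflux+ and multiple-efflux-pump-disrupted) carrying plasmid IMP-1, with inducible AmpC, tested by broth microdilution. Imipenem and/or ceftazidime fixed, usually at CLSI breakpoint, plus fixed class A/C β-lactamase inhibitor; titrated MBL inhibitor concentration restoring susceptibility recorded and compared between strains as efflux fold difference.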

[5] = test system: P. aeruginosa MB9799 (efflux-, IMP-1 plasmid); type: cell-based, Pseudomonas aeruginosa; settings: efflux − (MB9799) strain; imipenem at 2 μg/mL; in the presence of a class A, C, D serine β-lactamase inhibitor closely related to relebactam
Procedure, shortened: as §3

Chain of NDM-1 (C7C422 whole entry, looked up, species assumed): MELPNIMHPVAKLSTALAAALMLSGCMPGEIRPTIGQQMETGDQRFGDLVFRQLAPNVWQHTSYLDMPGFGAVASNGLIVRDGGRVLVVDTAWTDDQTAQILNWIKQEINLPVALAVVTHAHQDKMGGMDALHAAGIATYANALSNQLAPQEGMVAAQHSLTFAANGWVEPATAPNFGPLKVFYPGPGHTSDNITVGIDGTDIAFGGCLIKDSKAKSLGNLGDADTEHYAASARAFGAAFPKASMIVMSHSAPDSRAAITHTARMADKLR

Row | SMILES | IC50 (NDM-1) [nM] | IC50 (IMP-1) [nM] | IC50 (VIM-1) [nM] | IC50 (VIM-2) [nM] | CLB30016 E. coli MITC95 NDM [1] [µM] | IHMA599644 K. pneumoniae MITC95 VIM [2] [µM] | CL5741 S. marcescens MITC95 IMP [3] [µM] | MB9798 MITC95 P. aeruginosa uM Efflux WT [4] [µM] | Efflux ratio [4] | MB9799 MITC95 P. aeruginosa uM Efflux Mutant [5] [µM]
1 | NS(=O)(=O)c1c(S(=O)(=O)N[C@@H]2CCNC2)ccc(N2CC(N3CCCCC3)C2)c1-c1nnn[nH]1 [Example 112, 4-(3-piperidin-1-ylazetidin-1-yl)-N1-[(3R)-pyrrolidin-3-yl]-3-(1H-tetrazol-5-yl)benzene-1,2-disulfonamide] | 8.98 | 15 | 2.9 | 16.6 | 0.78 | 3.13 | 1.56 | 50.00 | 31.99 | 1.56
2 | COC1(CO)CCN(c2ccc(S(=O)(=O)NC[C@H](O)CN)c(S(N)(=O)=O)c2-c2nn[nH]n2)CC1 [Example 21, (R)-N^1-(3-amino-2-hydroxypropyl)-4-(4-(hydroxymethyl)-4-methoxypiperidin-1-yl)-3-(2H-tetrazol-5-yl)benzene-1,2-disulfonamide] | 0.41 | 0.56 | 1.13 | 2.7 | 12.50 | 12.50 | 6.25 | 3.13 | 1.00 | 3.13
3 | NC[C@@H](O)CNS(=O)(=O)c1ccc(N[C@H]2CCC[C@H]2N)c(-c2nn[nH]n2)c1S(N)(=O)=O [Example 178, N1-((R)-3-amino-2-hydroxypropyl)-4-(((1S,2R)-2-aminocyclopentyl)amino)-3-(2H-tetrazol-5-yl)benzene-1,2-disulfonamide] | 29 | 101 | 80.1 | 132 | 1.56 | 6.25 | 6.25 | 25.00 | 4.00 | 6.25
4 | NCCNS(=O)(=O)C1CCN(c2ccc(S(=O)(=O)N[C@@H](CN)CO)c(S(N)(=O)=O)c2-c2nn[nH]n2)CC1 [Example 202, (S)-N1-(1-amino-3-hydroxypropan-2-yl)-4-(4-(N-(2-aminoethyl)sulfamoyl)piperidin-1-yl)-3-(2H-tetrazol-5-yl)benzene-1,2-disulfonamide] | 0.44 | 0.58 | 0.09 | 1.6 | 0.78 | 1.56 | 1.56 | 1.56 | 1.00 | 1.56
5 | NC[C@@H](O)CNS(=O)(=O)c1ccc(N2CC[C@H](N)C2)c(-c2nn[nH]n2)c1S(N)(=O)=O [Example 126, N1-((R)-3-amino-2-hydroxypropyl)-4-((S)-3-aminopyrrolidin-1-yl)-3-(2H-tetrazol-5-yl)benzene-1,2-disulfonamide] | 200 | 124 | 7.7 | 32.5 | 1.56 | 0.78 | 3.13 | 6.25 | 2.00 | 3.13
6 | NC[C@@H](O)CNS(=O)(=O)c1ccc(N2CCN(C(CO)CO)CC2)c(-c2nn[nH]n2)c1S(N)(=O)=O [Example 160, (R)-N1-(3-amino-2-hydroxypropyl)-4-(4-(1,3-dihydroxypropan-2-yl)piperazin-1-yl)-3-(2H-tetrazol-5-yl)benzene-1,2-disulfonamide] | 1.16 | 1.2 | 1.34 | 5.49 | 0.78 | 1.56 | 0.20 | 1.56 | 1.00 | 1.56
7 | NC[C@@H](O)CNS(=O)(=O)c1ccc(N2CCN(CCO)C(=O)C2)c(-c2nn[nH]n2)c1S(N)(=O)=O [Example 146, (R)-N1-(3-amino-2-hydroxypropyl)-4-(4-(2-hydroxyethyl)-3-oxopiperazin-1-yl)-3-(2H-tetrazol-5-yl)benzene-1,2-disulfonamide] | 2.32 | 2.25 | 0.31 | 1.77 | 1.56 | 6.25 | 3.13 | 1.56 | 1.00 | 1.56
8 | NS(=O)(=O)c1c(S(=O)(=O)N[C@@H]2CCNC2)ccc(N2CCC(O)CC2)c1-c1nnn[nH]1 [Example 63, 4-(4-hydroxypiperidin-1-yl)-N1-[(3R)-pyrrolidin-3-yl]-3-(1H-tetrazol-5-yl)benzene-1,2-disulfonamide] | 0.31 | 0.47 | 0.16 | 0.66 | 3.13 | 6.25 | 3.13 | 1.56 | 1.00 | 1.56
9 | NS(=O)(=O)c1c(S(=O)(=O)C2CNC2)ccc(N2CCCC(CO)C2)c1-c1nnn[nH]1 (stereo not drawn) [Example 57, 6-(azetidin-3-ylsulfonyl)-3-[3-(hydroxymethyl)piperidin-1-yl]-2-(1H-tetrazol-5-yl)benzenesulfonamide] | 2.48 | 4.38 | 1.44 | 1.87 | 3.13 | 12.50 | 3.13 | 25.00 | 15.99 | 1.56
10 | NS(=O)(=O)c1c(S(=O)(=O)C2CNC2)ccc(N2CCN(CCO)CC2)c1-c1nnn[nH]1 [Example 54, 6-(azetidin-3-ylsulfonyl)-3-[4-(2-hydroxyethyl)piperazin-1-yl]-2-(1H-tetrazol-5-yl)benzenesulfonamide] | 16.7 | 21.9 | 66.1 | 69.5 | 0.39 | 6.25 | 0.39 | 6.25 | 4.00 | 1.56
11 | CC1(C)CN(c2ccc(S(=O)(=O)NC[C@H](O)CN)c(S(N)(=O)=O)c2-c2nn[nH]n2)CCN1CCO [Example 173, (R)-N1-(3-amino-2-hydroxypropyl)-4-(4-(2-hydroxyethyl)-3,3-dimethylpiperazin-1-yl)-3-(2H-tetrazol-5-yl)benzene-1,2-disulfonamide] | 19.8 | 10.5 | 13.7 | 114 | 1.56 | 6.25 | 3.13 | 6.25 | 4.00 | 1.56
12 | NCCCC1CCN(c2ccc(S(=O)(=O)NC[C@H](O)CN)c(S(N)(=O)=O)c2-c2nn[nH]n2)CC1 [Example 193, (R)-N1-(3-amino-2-hydroxypropyl)-4-(4-(3-aminopropyl)piperidin-1-yl)-3-(2H-tetrazol-5-yl)benzene-1,2-disulfonamide] | 0.48 | 0.67 | 0.075 | 0.75 | 1.56 | 1.56 | 1.56 | 0.78 | 1.00 | 0.78
